What was measured:
[1] = target: Vascular endothelial growth factor receptor 1 (Homo sapiens, UniProt P17948); format: cell-based; conditions: huvec; also: in other assays of this panel Not Active means under 50% inhibition at 10 µM
Cannabinoid receptor 1 = Cannabinoid receptor 1 (Homo sapiens, UniProt P21554); format: cell membranes, Chem-1, Membrane; conditions: chem-1; also: in other assays of this panel Not Active means under 50% inhibition at 10 µM
D(4) dopamine receptor = target: T1, D(4) dopamine receptor (Homo sapiens, UniProt P21917); experiment: DRUGMATRIX: Dopamine D4.2 radioligand binding (ligand: [3H] Spiperone); format: cell membranes, CHO-K1, Membrane; conditions: cho-k1; Not Active = under 50% inhibition at 10 µM
T1 sequence (P21917 whole entry): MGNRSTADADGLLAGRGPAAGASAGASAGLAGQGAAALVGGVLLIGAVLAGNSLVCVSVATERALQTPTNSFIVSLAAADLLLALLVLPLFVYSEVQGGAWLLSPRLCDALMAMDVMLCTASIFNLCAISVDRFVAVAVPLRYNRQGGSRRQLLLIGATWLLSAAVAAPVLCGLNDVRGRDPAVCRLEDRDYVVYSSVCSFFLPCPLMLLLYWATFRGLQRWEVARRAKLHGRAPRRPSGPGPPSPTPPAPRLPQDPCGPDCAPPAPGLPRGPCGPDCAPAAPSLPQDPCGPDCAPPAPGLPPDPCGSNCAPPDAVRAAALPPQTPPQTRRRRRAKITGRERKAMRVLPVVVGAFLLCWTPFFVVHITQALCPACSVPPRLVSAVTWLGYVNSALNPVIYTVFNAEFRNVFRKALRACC

[2] = DRUGMATRIX: Glutamate, Kainate radioligand binding (ligand: [3H] Kainic acid); format: cell membranes, Rattus norvegicus, Wistar, Brain, Membrane; conditions: Not Active = under 50% inhibition at 10 µM
[3] = target: T2, Angiotensin-converting enzyme (Oryctolagus cuniculus, UniProt P12822); experiment: biochemical; format: tissue-based, Lung;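 also: enzymatic inhibition of angiotensin-converting enzyme measured with FAPGG as the substrate; in other assays of this panel Not Active means under 50% inhibition at 10 µM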
T2 sequence (P12822 whole entry): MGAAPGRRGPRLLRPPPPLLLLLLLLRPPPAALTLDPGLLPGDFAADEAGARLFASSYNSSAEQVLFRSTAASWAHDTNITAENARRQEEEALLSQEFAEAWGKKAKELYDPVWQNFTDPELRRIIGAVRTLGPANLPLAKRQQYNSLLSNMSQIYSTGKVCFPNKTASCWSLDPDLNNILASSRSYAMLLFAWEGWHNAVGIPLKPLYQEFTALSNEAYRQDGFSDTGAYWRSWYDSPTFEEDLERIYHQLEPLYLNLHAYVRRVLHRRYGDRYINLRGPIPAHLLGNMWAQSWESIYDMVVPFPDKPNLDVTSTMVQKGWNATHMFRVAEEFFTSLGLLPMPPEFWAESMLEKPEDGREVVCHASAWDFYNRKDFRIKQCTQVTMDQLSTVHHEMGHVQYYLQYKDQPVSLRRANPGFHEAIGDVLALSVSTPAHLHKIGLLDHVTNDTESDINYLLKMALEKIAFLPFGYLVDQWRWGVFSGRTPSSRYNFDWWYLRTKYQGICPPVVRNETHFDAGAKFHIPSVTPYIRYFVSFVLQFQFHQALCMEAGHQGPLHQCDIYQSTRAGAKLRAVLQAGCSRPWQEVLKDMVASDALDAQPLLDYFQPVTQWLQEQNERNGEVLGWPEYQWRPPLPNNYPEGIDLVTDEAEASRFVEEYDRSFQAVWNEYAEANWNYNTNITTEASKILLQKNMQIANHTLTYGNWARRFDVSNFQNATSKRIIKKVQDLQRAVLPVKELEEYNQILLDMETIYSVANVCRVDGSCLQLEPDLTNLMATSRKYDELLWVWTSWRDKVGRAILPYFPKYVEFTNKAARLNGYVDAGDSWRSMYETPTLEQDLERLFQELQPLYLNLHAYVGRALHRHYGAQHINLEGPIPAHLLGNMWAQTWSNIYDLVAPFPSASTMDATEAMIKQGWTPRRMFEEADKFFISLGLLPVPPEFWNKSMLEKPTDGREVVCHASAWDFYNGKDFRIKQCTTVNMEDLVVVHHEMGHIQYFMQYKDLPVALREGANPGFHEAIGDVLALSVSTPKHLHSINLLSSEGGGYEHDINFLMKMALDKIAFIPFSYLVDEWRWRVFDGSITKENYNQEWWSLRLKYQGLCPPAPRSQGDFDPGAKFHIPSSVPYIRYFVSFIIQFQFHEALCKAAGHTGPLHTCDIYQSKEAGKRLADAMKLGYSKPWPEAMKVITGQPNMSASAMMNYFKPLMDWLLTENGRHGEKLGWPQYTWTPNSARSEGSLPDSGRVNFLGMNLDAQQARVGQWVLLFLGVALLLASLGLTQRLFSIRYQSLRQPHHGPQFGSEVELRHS

[4] = target: Protein phosphatase 3 catalytic subunit alpha (Homo sapiens, UniProt Q08209); design: species or system Escherichia coli;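 also: inhibition of calcineurin (PP2B) enzyme activity, measured with DiFMUP as the substrate; in other assays of this panel Not Active means under 50% inhibition at 10 µM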
Acetylcholinesterase = Acetylcholinesterase (Homo sapiens, UniProt P22303); experiment: DRUGMATRIX: Acetylcholinesterase enzyme inhibition (substrate: acetylthiocholine); format: cell-based, HEK293; conditions: Not Active = under 50% inhibition at 10 µM
Acetylcholinesterase, sequence (P22303 whole entry): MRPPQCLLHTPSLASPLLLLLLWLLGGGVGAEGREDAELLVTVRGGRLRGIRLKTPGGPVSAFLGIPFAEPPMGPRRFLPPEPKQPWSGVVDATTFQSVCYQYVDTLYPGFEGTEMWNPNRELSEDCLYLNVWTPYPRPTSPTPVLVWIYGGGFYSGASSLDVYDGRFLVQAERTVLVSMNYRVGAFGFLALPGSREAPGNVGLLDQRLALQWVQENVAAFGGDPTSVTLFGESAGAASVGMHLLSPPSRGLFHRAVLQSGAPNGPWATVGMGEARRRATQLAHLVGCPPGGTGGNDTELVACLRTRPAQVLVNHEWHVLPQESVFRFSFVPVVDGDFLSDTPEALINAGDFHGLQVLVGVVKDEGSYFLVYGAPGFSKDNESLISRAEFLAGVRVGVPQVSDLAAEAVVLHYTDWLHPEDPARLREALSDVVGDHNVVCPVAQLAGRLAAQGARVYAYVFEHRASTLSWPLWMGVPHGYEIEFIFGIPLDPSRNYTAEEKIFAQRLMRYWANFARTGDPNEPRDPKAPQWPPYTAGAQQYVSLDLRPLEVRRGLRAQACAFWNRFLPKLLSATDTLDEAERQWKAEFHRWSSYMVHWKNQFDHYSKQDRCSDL

Cytochrome P450 1A2 = target: T3, Cytochrome P450 1A2 (Homo sapiens, UniProt P05177); conditions: bti-tn-5b1-4; also: in other assays of this panel Not Active means under 50% inhibition at 10 µM
T3 sequence (P05177 whole entry): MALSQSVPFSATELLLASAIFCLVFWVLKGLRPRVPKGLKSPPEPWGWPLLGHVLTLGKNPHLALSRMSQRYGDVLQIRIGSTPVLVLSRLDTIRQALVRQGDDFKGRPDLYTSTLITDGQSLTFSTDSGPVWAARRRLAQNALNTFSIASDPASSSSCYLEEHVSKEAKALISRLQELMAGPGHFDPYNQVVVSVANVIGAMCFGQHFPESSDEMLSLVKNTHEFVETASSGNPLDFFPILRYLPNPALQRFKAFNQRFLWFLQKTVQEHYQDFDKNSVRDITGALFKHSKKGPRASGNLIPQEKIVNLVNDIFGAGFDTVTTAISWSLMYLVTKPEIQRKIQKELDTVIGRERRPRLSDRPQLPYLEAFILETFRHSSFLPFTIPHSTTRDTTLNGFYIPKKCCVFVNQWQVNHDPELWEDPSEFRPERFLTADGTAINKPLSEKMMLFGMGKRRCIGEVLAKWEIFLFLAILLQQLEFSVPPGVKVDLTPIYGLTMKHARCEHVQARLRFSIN

Cannabinoid receptor 1, sequence (P21554 whole entry): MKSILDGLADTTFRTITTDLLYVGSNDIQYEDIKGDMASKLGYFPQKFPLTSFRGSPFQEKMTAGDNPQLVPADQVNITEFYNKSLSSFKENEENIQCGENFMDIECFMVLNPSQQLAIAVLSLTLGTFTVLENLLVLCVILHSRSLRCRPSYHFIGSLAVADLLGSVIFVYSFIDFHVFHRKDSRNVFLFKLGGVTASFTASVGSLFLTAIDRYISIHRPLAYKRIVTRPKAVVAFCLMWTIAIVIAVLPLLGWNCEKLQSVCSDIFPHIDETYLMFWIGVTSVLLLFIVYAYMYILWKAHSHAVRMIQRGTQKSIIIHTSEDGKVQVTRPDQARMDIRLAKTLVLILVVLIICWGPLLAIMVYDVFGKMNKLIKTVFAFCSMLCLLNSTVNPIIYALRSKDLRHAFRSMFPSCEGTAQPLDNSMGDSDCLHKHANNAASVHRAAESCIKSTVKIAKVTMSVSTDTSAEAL
Vascular endothelial growth factor receptor 1, sequence (P17948 whole entry): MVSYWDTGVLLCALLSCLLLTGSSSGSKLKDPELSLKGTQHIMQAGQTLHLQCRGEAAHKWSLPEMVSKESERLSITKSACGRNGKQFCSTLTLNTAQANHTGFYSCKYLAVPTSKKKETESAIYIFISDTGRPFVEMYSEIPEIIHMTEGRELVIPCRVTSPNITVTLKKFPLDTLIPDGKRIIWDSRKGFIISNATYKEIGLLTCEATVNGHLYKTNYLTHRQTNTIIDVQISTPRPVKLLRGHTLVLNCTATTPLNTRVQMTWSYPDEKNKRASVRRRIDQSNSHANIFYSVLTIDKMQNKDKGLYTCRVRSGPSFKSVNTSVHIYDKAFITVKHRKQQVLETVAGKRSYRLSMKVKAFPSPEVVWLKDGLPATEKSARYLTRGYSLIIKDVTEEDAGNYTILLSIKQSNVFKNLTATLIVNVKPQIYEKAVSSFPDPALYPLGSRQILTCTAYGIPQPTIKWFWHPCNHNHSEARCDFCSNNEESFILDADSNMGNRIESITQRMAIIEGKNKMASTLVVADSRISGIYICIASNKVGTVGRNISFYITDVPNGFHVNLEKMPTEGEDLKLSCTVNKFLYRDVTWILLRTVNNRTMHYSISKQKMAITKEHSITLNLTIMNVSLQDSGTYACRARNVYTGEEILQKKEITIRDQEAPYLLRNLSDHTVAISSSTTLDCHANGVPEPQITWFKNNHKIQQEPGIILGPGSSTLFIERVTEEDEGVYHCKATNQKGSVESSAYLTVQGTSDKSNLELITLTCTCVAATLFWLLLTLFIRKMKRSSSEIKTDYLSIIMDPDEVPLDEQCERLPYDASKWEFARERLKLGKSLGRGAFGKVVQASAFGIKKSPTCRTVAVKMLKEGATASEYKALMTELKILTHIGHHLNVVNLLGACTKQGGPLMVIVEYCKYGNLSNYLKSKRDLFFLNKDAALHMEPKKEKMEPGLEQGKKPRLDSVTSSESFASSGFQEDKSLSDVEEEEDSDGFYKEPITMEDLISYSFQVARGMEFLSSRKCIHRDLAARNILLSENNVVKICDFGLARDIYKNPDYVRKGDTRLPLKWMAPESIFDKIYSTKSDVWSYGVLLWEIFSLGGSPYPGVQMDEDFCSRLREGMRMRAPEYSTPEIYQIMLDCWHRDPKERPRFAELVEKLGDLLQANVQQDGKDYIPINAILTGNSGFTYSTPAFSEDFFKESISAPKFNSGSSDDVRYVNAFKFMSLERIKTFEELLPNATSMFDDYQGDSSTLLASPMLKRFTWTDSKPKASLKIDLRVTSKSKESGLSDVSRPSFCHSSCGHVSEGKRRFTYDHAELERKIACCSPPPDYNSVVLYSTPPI

| SMILES | IC50 [1] | IC50 (Cannabinoid receptor 1) | IC50 (D(4) dopamine receptor) | IC50 [2] | Ki [2] | IC50 [3] | IC50 [4] | IC50 (Acetylcholinesterase; hek293) | IC50 (Cytochrome P450 1A2) | Ki (Cytochrome P450 1A2) | IC50 (Acetylcholinesterase; read-out: IC50) [µM] |
| --- | --- | --- | --- | --- | --- | --- | --- | --- | --- | --- | --- |
| Clc1cc(Cl)c(OCC#CI)cc1Cl [HALOPROGIN] | Not Active | Not Active | Not Active | Not Active | Not Active | Not Active | Not Active | Not Active | Not Active | Not Active | – |
| O=c1[nH]cnc2c1ncn2[C@H]1CC[C@@H](CO)O1 [DIDANOSINE] | Not Active | Not Active | Not Active | Not Active | Not Active | Not Active | Not Active | Not Active | Not Active | Not Active | – |
| Cl.NC[C@H]1CC[C@H](C(=O)Oc2ccc(CCC(=O)O)cc2)CC1 [CETRAXATE HYDROCHLORIDE] | Not Active | Not Active | Not Active | Not Active | Not Active | Not Active | Not Active | Not Active | Not Active | Not Active | – |
| COc1cc([C@@H]2c3cc4c(cc3[C@H](O)[C@H]3COC(=O)[C@H]23)OCO4)cc(OC)c1OC [PODOFILOX] | Not Active | Not Active | Not Active | Not Active | Not Active | Not Active | Not Active | Not Active | Not Active | Not Active | – |
| COc1cc(/C=C/C(=O)O)ccc1O [FERULATE] | Not Active | Not Active | Not Active | Not Active | Not Active | Not Active | Not Active | Not Active | Not Active | Not Active | – |
| O=C(O)CCc1nc(-c2ccccc2)c(-c2ccccc2)o1 [OXAPROZIN] | Not Active | Not Active | Not Active | Not Active | Not Active | Not Active | Not Active | Not Active | Not Active | Not Active | – |
| C[C@H]1C[C@H]2[C@@H]3CCC4=CC(=O)C=C[C@]4(C)[C@@]3(F)[C@@H](O)C[C@]2(C)[C@@]1(O)C(=O)CO [BETAMETHASONE] | Not Active | Not Active | Not Active | Not Active | Not Active | Not Active | Not Active | Not Active | Not Active | Not Active | – |
| Nc1nc(N)c2nc(CNc3ccc(C(=O)N[C@@H](CCC(=O)O)C(=O)O)cc3)cnc2n1 [AMINOPTERIN] | Not Active | Not Active | Not Active | Not Active | Not Active | Not Active | Not Active | Not Active | Not Active | Not Active | – |
| C=C(Cl)Cl [1,1-DICHLOROETHENE] | Not Active | Not Active | Not Active | Not Active | Not Active | Not Active | Not Active | Not Active | Not Active | Not Active | – |
| C#C[C@]1(O)CC[C@H]2[C@@H]3CCC4=CC(=O)CC[C@@H]4[C@H]3CC[C@@]21C [NORETHINDRONE] | Not Active | Not Active | Not Active | Not Active | Not Active | Not Active | Not Active | Not Active | Not Active | Not Active | – |
| CC[C@H]1OC(=O)[C@H](C)[C@@H](O[C@H]2C[C@@](C)(OC)[C@@H](O)[C@H](C)O2)[C@H](C)[C@@H](O[C@@H]2O[C@H](C)C[C@H](N(C)C)[C@H]2O)[C@](C)(O)C[C@@H](C)C(=O)[C@H](C)[C@@H](O)[C@]1(C)O [ERYTHROMYCIN] | Not Active | Not Active | Not Active | Not Active | Not Active | Not Active | Not Active | Not Active | Not Active | Not Active | – |
| C[C@H](C(=O)O)c1ccc2oc(-c3ccc(F)cc3)nc2c1 [FLUNOXAPROFEN] | Not Active | Not Active | Not Active | Not Active | Not Active | Not Active | Not Active | Not Active | Not Active | Not Active | – |
| CC1(COc2ccc(CC3SC(=O)NC3=O)cc2)CCCCC1 (stereo not given) [CIGLITAZONE] | Not Active | Not Active | Not Active | Not Active | Not Active | Not Active | Not Active | – | Not Active | Not Active | 15 |
| C=CCN1CC[C@]23c4c5ccc(O)c4O[C@H]2/C(=N/N=C2\CC[C@@]4(O)[C@H]6Cc7ccc(O)c8c7[C@@]4(CCN6CC=C)[C@H]2O8)CC[C@@]3(O)[C@H]1C5 [NALOXONAZINE] | Not Active | Not Active | Not Active | Not Active | Not Active | Not Active | Not Active | Not Active | Not Active | Not Active | – |
| C[N+](C)(C)CCOP(=O)([O-])OC[C@H](O)CO | Not Active | Not Active | Not Active | Not Active | Not Active | Not Active | Not Active | Not Active | Not Active | Not Active | – |
| CCC1(c2ccccc2)C(=O)NC(=O)NC1=O [PHENOBARBITAL] | Not Active | Not Active | Not Active | Not Active | Not Active | Not Active | Not Active | Not Active | Not Active | Not Active | – |
| O=C(O)COC(=O)Cc1ccccc1Nc1c(Cl)cccc1Cl [ACECLOFENAC] | Not Active | Not Active | Not Active | Not Active | Not Active | Not Active | Not Active | Not Active | Not Active | Not Active | – |

Reference: ChEMBL document CHEMBL1909046, “DrugMatrix in vitro pharmacology data”
